The text below walks through data of patent US20140315234A1, “METHOD TO GENERATE DOPAMINERGIC NEURONS FROM MOUSE AND HUMAN CELLS” (priority 2010, published 2014).

Read-outs that look alike come from different tables or passages of the source.

Assay [1] deals with K+ channel. It counts as cell-based, mouse.
The test system of assay [2] is K+ currents. The experiment in a line: Pharmacological suppression of K+ currents in human iDAN cells. It counts as cell-based. As to the method: (§1) Recordings were performed on reprogrammed mouse and human fibroblasts and primary mesencephalic DA neurons. […] Only cells without signs of detachment from the substrate were used for recordings. Cells were perfused continuously with HEPES-buffered saline (HBS) of the following composition (in mM): 140 NaCl, 5 KCl, 2 CaCl2, 2 MgCl2, 15 HEPES, and 25 glucose, pH 7.4. The patch pipette solution contained (in mM): 130 K-gluconate, 10 KCl, 0.5 CaCl2, 15 HEPES, 5 EGTA, 8 NaCl, 2 MgATP, 0.3 Na2GTP, and 10 glucose, pH adjusted to 7.2 with KOH. Action potentials were recorded in the on-cell and the current-clamp whole-cell configuration. A current was injected to have membrane potentials around −60 mV, and step currents from −50 pA to 40 pA were injected to elicit action potentials. Na^+ currents and composite K^+ currents were recorded in the voltage-clamp configuration by delivering voltage steps ranging from −100 mV to +20 mV in cells held at −60 mV. Delayed rectifier K+ currents were activated by 0.5 s voltage steps from −40 mV to +20 mV after a 0.5 s-long step to −40 mV.

The subject of assay [3] is Na+ voltage-gated channels. It counts as cell-based, mouse.
The test system of assay [4] is Na+ currents. It counts as cell-based, human.
Assay [5] has as its system D2/D3 receptor. It counts as cell-based, mouse. As to the method:
as §1

As for `Nc1ccncc1` [4-AP, 4-aminopyridine], the “effect on outward K+ currents” value in assay [1] (4-AP 3 mM, TEA 10 mM, in the presence of TTX, n=4) is reported as “inhibition of outward currents”. Moreover, the “effect on K+ currents and action potentials” value in assay [2] was “Suppression”. For the molecule `CC[N+](CC)(CC)CC` [TEA, tetraethylammonium], the “effect on outward K+ currents” value in assay [1] was “inhibition of outward currents”.

Take `NC1=N[C@H](O)[C@H]2[C@H]3O[C@]4(O)O[C@@H]([C@@H](O)[C@@]2(N1)[C@@H]4O)[C@]3(O)CO` [TTX, tetrodotoxin]: in assay [3], the “block of the fast inward current” value is “complete block”. Besides, the “effect on Na+ currents and action potentials” value in assay [4] is given as “Suppression”. `CCCN1CCC[C@@H]2Cc3n[nH]cc3C[C@H]21` [quinpirole]: in assay [5], the “effect on neuronal firing” value is reported as “drastically suppressed neuronal firing in 6 of 10 recorded cells”.
